Source: patent publication US20240226227A9, “BONE DISEASE TREATMENT” (The University of Birmingham, priority 2019, published 2024)

Assays:
[1] = tested on: long bones of wild-type mice; test: 3-point bending test of long bones ex vivo after treatment of mice; assay type: in vivo, mouse; settings: daily injections for 14 days, vs PBS
Protocol: (§1) WT mice were housed in the Biomedical Services Unit at the University of Birmingham. Mice were used between 6 and 16 weeks of age. • 1. Homeostasis—Six-week-old male wild-type mice were treated with or without daily intraperitoneal (i.p.) injections of PEPITEM (300 μg) for 2 weeks. Mice were culled at 2 weeks to examine the effect of PEPITEM on bone homeostasis in young resting bones. • 2. Ovariectomy (model of age-related osteoporosis)—Twelve-week-old female wild-type mice were subjected to ovariectomy (OVX). Two weeks post-surgery, mice were treated with or without daily i.p. injections of PEPITEM (300 μg) for 2 weeks. Mice were culled at 2 weeks to obtain baseline bone loss measurements, or at 4 weeks to examine the effect of PEPITEM on OVX-induced bone loss. • 3. Analysis of murine bone parameters—Histomorphometry analysis was performed on long bones (femur; tibia) and/or spine to determine the effects of PEPITEM on the structural architecture of the tissue, cellular distribution and bone volume, including TRAP and Toluidine blue staining for osteoclasts and osteoblasts respectively. For information on these staining methods, see Das, P. et al., PNAS, 2018, 115(43), E10137-E10146 and Waddington, R. J. and Sloan, A. J. eds. Tissue Engineering and Regeneration in Dentistry: Current Strategies. West Sussex: John Wiley & Sons. Femurs were subjected to a 3-point bending test using a Bose 5500 (Bose) to determine the stiffness of the bones and the force required to fracture the bone. For more information on the 3-point bending test method, see Huesa, C. et al., Bone, 2011, 48(5), 1066-1074.

[2] = tested on: ovariectomized wild-type mice; test: Ovariectomy model of age-related osteoporosis, microCT of long bones; assay type: in vivo, mouse; settings: OVX mice
Protocol: (§2) All experiments were performed in accordance with UK Home Office regulations. For the animal studies, in each experiment wild-type (WT) animals were allocated at random to different experimental groups. Importantly, mice from the same litter were randomly distributed amongst the experimental groups, and where possible, they were equally distributed amongst experimental groups. Injections of peptide were carried out at the same time of day, with identical reagents when possible. The investigators were not blinded to allocation during experiments and outcome assessment. All samples analyzed were included in the study.
as §1

[3] = tested on: osteoclasts and chondroclasts in tibia of wild-type mice; test: TRAP staining of decalcified tibia sections, osteoclast and chondroclast counts; assay type: in vivo, mouse; settings: daily injections for 14 days, vs PBS
Protocol: WT mice were housed in the Biomedical Services Unit at the University of Birmingham. Mice were used between 6 and 16 weeks of age. • 1. Homeostasis—Six-week-old male wild-type mice were treated with or without daily intraperitoneal (i.p.) injections of PEPITEM (300 μg) for 2 weeks. Mice were culled at 2 weeks to examine the effect of PEPITEM on bone homeostasis in young resting bones. • 2. Ovariectomy (model of age-related osteoporosis)—Twelve-week-old female wild-type mice were subjected to ovariectomy (OVX). Two weeks post-surgery, mice were treated with or without daily i.p. injections of PEPITEM (300 μg) for 2 weeks. Mice were culled at 2 weeks to obtain baseline bone loss measurements, or at 4 weeks to examine the effect of PEPITEM on OVX-induced bone loss. • 3. […]
For analysis of whole hind limb sections, Zen Blue software (ZEISS, Cambridge, UK) was used to break whole leg scans into regions of 20 μm by 20 μm, which were saved as images (JPEG) and opened on ImageJ™ (National institute of health (NIH); Maryland, USA). […] Osteoclasts were counted per region using ImageJ™ count maxima tool, where maxima were defined according to noise tolerance to neighboring squares and given as total number of osteoclasts per section. […]

[4] = tested on: murine osteoblast cell line MC3T3; test: Alizarin red mineralization assay, MC3T3 osteoblast cell line; assay type: cell-based, mouse; settings: MC3T3 cells, 10 ng/ml PEPITEM in differentiation media, up to 21 days, vs untreated cells
Protocol: The spontaneously immortalised murine MC3T3-E1 cell line (ATCC, England, UK, CRL-2593) was brought up from liquid nitrogen and cultured in basal media made up of: αMEM media (Sigma-Aldrich™, St. Louis, MO, USA, M8042) supplemented with 2 mM L-Glutamine, 100 U/ml Penicillin and 100 μg/ml Streptomycin (all from Sigma-Aldrich™, G1146) and fetal bovine serum [(FBS) Biosera™, East Sussex, UK, FB1001]. […] Mineralisation was assessed using an Alizarin red staining quantification assay and ALP activity.
(§3) Osteoblasts were cultured in mineralization differentiation media in the presence or absence of PEPITEM (10 ng/ml) over a 21-day period, dependent on cell source. Mineralization was assessed by quantifying the amount of alizarin red (nM) or the level of alkaline phosphate activity (absorbance at 405 nm) per condition.
(§4) Alizarin red analysis was performed following the manufacturer's instructions (Caltag+Medsystems™, Buckingham, UK, SC8678). […] Alizarin red was quantified using ImageJ™ (NIH) by removing backing, converting to a binary image and measuring area fraction stained. […]

[5] = tested on: long bones of wild-type mice; test: Bone homeostasis in young healthy mice, microCT of long bones; assay type: in vivo, mouse; settings: daily i.p. 300 μg for 14 days, vs PBS
Protocol: as §2, §1

[6] = tested on: vertebra of wild-type mice; test: Bone homeostasis in young healthy mice, microCT of vertebra; assay type: in vivo, mouse; settings: daily i.p. 300 μg for 14 days, vs PBS
Protocol: as §2, §1

[7] = tested on: primary human osteoblasts; test: Alkaline phosphatase activity (mineralization), primary human osteoblasts; assay type: cell-based; settings: 10 ng/ml PEPITEM, vs untreated cells, paired t-test
Protocol: Human osteoarthritis subchondral joint tissue was obtained at the time of total knee and hip joint replacement operations from the Royal Orthopaedic Hospital (Birmingham). To isolate primary osteoblasts, cartilage was removed from the femoral condyles and tibial plateaus and cut into 2 mm^2 pieces. Samples were kept in media and cleaned of fat. Media contains DMEM (Sigma™, D6546), FCS (10%), GPS (1%), Non-essential amino acid (1%; Sigma™, M7145), β-glycerophosphate (2 mM; Sigma™—G9422) and L-Ascorbic acid (50 μg/ml; Sigma™, A5960). Bone chips were placed in T75 flasks in 10 ml of media, replacing media every 2-3 days. Main outgrowth occurs between 10-14 days, after which chips were placed in new flasks. […]
as §3
To measure alkaline phosphatase activity, cells were washed in PBS before being lysed in 100 μl of RIPA buffer (Thermo Fisher™, R0278) for 15 minutes on ice. […] The plate was wrapped in foil and left to run for 45 minutes at 37° C. in an incubated shaker (SciQuip™; Shropshire, UK) before being quantified using a Synergy HT plate reader (BioTek™) with absorbance set at 405 nm.

[8] = tested on: primary murine osteoblast cells; test: Alizarin red mineralization assay, primary murine osteoblasts; assay type: cell-based, mouse; settings: 10 ng/ml PEPITEM, vs untreated cells, paired t-test
Protocol: Day 3-5 WT mouse pups were culled via decapitation and heads were washed briefly in 70% ethanol and kept hydrated in αMEM media supplemented with 2 mM L-Glutamine, 100 U/ml Penicillin and 100 μg/ml Streptomycin. Skin was removed from around calvaria using forceps, and the calvaria was dissected out and cleaned of any contaminating tissue. Calvaria were added to αMEM media supplemented with 1 mg/ml of collagenase d (Roche™, Basel, Switzerland, COLLD-RO). Tubes were then agitated at 37° C. for 10 minutes and the media discarded. αMEM media supplemented with 1 mg/ml of collagenase d was again added to calvaria and shaken at 37° C. for 30 minutes. […] Cells on ice were then spun down at 300 g for 4 minutes, resuspended in 1 ml of Basal media and counted using a haemocytometer. […]
as §3, §4

[9] = long bones, daily i.p. 300 μg for 2 weeks from 2 weeks post surgery, vs untreated

osteoblast mineralization (alkaline phosphatase activity) [7]: significantly increased
Substance: PEPITEM (SVTEQGAELSNEER; listed as Homo sapiens)
bending force [1]: significantly increased
fracture force [1]: significantly increased
stiffness of the bone [1]: significantly increased
additional bone loss after ovariectomy ([2]; 4 weeks post surgery, compared to 2-week untreated (baseline) mice): prevented additional bone loss
bone volume to trabecular bone volume ratio (BV/TV) [2, 9]: significantly increased
trabecular number [2, 9]: significantly increased
trabecular separation [2, 9]: decreased
trabecular thickness [2, 9]: significantly increased
number of chondroclasts per μm [3]: reduced
number of osteoclasts per mm^2 within the tibia [3]: significantly reduces
production of bone mineral (Alizarin Red staining) [4]: stimulates the production of bone mineral
bone volume to trabecular bone volume ratio (BV/TV) [5]: significantly increased
trabecular number [5]: significantly increased
trabecular separation [5]: decreased
trabecular thickness [5]: significantly increased
bone volume to trabecular bone volume ratio (BV/TV) [6]: significantly increased
trabecular number [6]: significantly increased
trabecular separation [6]: decreased
trabecular thickness [6]: significantly increased
osteoblast mineralization (Alizarin Red staining) [8]: significantly increased
